Assays:
ELIC F222A + C299A = biological target: T1, ELIC F222A + C299A (Dickeya chrysanthemi, UniProt P0C7B7, C299A/F222A); assay: TEVC cysteamine-induced current, ELIC F222A + C299A; format: cell-based; conditions: Xenopus laevis oocytes; ±SD; n=8
T1 construct: expressed in transfected cells; host or cells: Xenopus laevis oocytes injected with cRNA (pTLN plasmid)
From the text: (§1) To examine how different physical interactions at the M4-M1/M3 interface in both GLIC and ELIC (Fig. 1) influence function, we mutated each residue to Ala, and characterized how each mutation influenced agonist-induced channel gating using two-electrode voltage clamp electrophysiology. Both GLIC and ELIC are cation-selective ion channels that transiently gate open in response to agonist binding, although GLIC responds to protons while ELIC responds to primary amines, such as cysteamine, [34].
(§2) Stage V–VI oocytes were collected as previously described, injected with cRNA, and allowed to incubate one to four days at 16 °C in ND96 + buffer (5 mM HEPES, 96 mM NaCl, 2 mM KCl, 1 mM MgCl2, 1 mM CaCl2, and 2 mM Pyruvate). Whole cell currents were recorded using a two-electrode voltage clamp apparatus (OC-725C oocyte clamp; Holliston, MA). For GLIC, whole cell currents were recorded from injected oocytes (3–20 ng cRNA) immersed in MES buffer (140 mM NaCl, 2.8 mM KCl, 2 mM MgCl2, and 10 mM MES). Currents through the plasma membrane in response to pH jumps (pH 7.3 down to the indicated pH values) were measured with the transmembrane voltage clamped at voltages between −20 mV and −40 mV depending on the level of expression, typically −20 mV. […]

ELIC G268A = biological target: T2, ELIC G268A (Dickeya chrysanthemi, UniProt P0C7B7, G268A); assay: TEVC cysteamine-induced current, ELIC G268A; format: cell-based; conditions: Xenopus laevis oocytes; ±SD; n=8
T2 construct: expressed in transfected cells; host or cells: Xenopus laevis oocytes injected with cRNA (pTLN plasmid)
From the text: as §1, §2

ELIC L295A = tested on: ELIC L295A; design: method as in Henault et al.[9], [18], [29]; conditions: Xenopus laevis oocytes; ±SD; n=8; ref Henault et al.[9], [18], [29]; cited from earlier work
ELIC W219A + F303A = biological target: T3, ELIC W219A + F303A (Dickeya chrysanthemi, UniProt P0C7B7, F303A/W219A); assay: TEVC cysteamine-induced current, ELIC W219A + F303A; format: cell-based; conditions: Xenopus laevis oocytes; ±SD; n=8
T3 construct: expressed in transfected cells; host or cells: Xenopus laevis oocytes injected with cRNA (pTLN plasmid)
From the text: as §1, §2

ELIC W223A = biological target: T4, ELIC W223A (Dickeya chrysanthemi, UniProt P0C7B7, W223A); assay: TEVC cysteamine-induced current, ELIC W223A; format: cell-based; conditions: Xenopus laevis oocytes; ±SD; n=8
T4 construct: expressed in transfected cells; host or cells: Xenopus laevis oocytes injected with cRNA
From the text: as §1, §2

ELIC I310A = tested on: ELIC I310A; design: method as in Henault et al.[9], [18], [29]; conditions: Xenopus laevis oocytes; ±SD; n=10; ref Henault et al.[9], [18], [29]; cited from earlier work
ELIC C299A = tested on: ELIC C299A; design: method as in Henault et al.[9], [18], [29]; conditions: Xenopus laevis oocytes; ±SD; n=9; ref Henault et al.[9], [18], [29]; cited from earlier work
ELIC S271A + F307A = biological target: T5, ELIC S271A + F307A (Dickeya chrysanthemi, UniProt P0C7B7, F307A/S271A); assay: TEVC cysteamine-induced current, ELIC S271A + F307A; format: cell-based; conditions: Xenopus laevis oocytes; ±SD; n=8
T5 construct: expressed in transfected cells; host or cells: Xenopus laevis oocytes injected with cRNA (pTLN plasmid)
From the text: as §1, §2

ELIC I296A = tested on: ELIC I296A; design: method as in Henault et al.[9], [18], [29]; conditions: Xenopus laevis oocytes; ±SD; n=10; ref Henault et al.[9], [18], [29]; cited from earlier work
ELIC G270A = biological target: T6, ELIC G270A (Dickeya chrysanthemi, UniProt P0C7B7, G270A); assay: TEVC cysteamine-induced current, ELIC G270A; format: cell-based; conditions: Xenopus laevis oocytes; ±SD; n=8
T6 construct: expressed in transfected cells; host or cells: Xenopus laevis oocytes injected with cRNA (pTLN plasmid)
From the text: as §1, §2

ELIC I208A = biological target: T7, ELIC I208A (Dickeya chrysanthemi, UniProt P0C7B7, I208A); assay: TEVC cysteamine-induced current, ELIC I208A; format: cell-based; conditions: Xenopus laevis oocytes; ±SD; n=8
T7 construct: expressed in transfected cells; host or cells: Xenopus laevis oocytes injected with cRNA
From the text: as §1, §2

ELIC S271A + F303A = biological target: T8, ELIC S271A + F303A (Dickeya chrysanthemi, UniProt P0C7B7, F303A/S271A); assay: TEVC cysteamine-induced current, ELIC S271A + F303A; format: cell-based; conditions: Xenopus laevis oocytes; ±SD; n=8
T8 construct: expressed in transfected cells; host or cells: Xenopus laevis oocytes injected with cRNA (pTLN plasmid)
From the text: as §1, §2

ELIC G311A = tested on: ELIC G311A; design: method as in Henault et al.[9], [18], [29]; conditions: Xenopus laevis oocytes; ±SD; n=11; ref Henault et al.[9], [18], [29]; cited from earlier work
ELIC M264A = biological target: T9, ELIC M264A (Dickeya chrysanthemi, UniProt P0C7B7, M264A); assay: TEVC cysteamine-induced current, ELIC M264A; format: cell-based; conditions: Xenopus laevis oocytes; ±SD; n=8
T9 construct: expressed in transfected cells; host or cells: Xenopus laevis oocytes injected with cRNA
From the text: as §1, §2

ELIC L209A = biological target: T10, ELIC L209A (Dickeya chrysanthemi, UniProt P0C7B7, L209A); assay: TEVC cysteamine-induced current, ELIC L209A; format: cell-based; conditions: Xenopus laevis oocytes; ±SD; n=8
T10 construct: expressed in transfected cells; host or cells: Xenopus laevis oocytes injected with cRNA
From the text: as §1, §2

ELIC L278A = biological target: T11, ELIC L278A (Dickeya chrysanthemi, UniProt P0C7B7, L278A); assay: TEVC cysteamine-induced current, ELIC L278A; format: cell-based; conditions: Xenopus laevis oocytes; ±SD; n=8
T11 construct: expressed in transfected cells; host or cells: Xenopus laevis oocytes injected with cRNA (pTLN plasmid)
From the text: as §1, §2

ELIC L204A = biological target: T12, ELIC L204A (Dickeya chrysanthemi, UniProt P0C7B7, L204A); assay: TEVC cysteamine-induced current, ELIC L204A; format: cell-based; conditions: Xenopus laevis oocytes; ±SD; n=8
T12 construct: expressed in transfected cells; host or cells: Xenopus laevis oocytes injected with cRNA
From the text: as §1, §2

ELIC W219A = biological target: T13, ELIC W219A (Dickeya chrysanthemi, UniProt P0C7B7, W219A); assay: TEVC cysteamine-induced current, ELIC W219A; format: cell-based; conditions: Xenopus laevis oocytes; ±SD; n=8
T13 construct: expressed in transfected cells; host or cells: Xenopus laevis oocytes injected with cRNA
From the text: as §1, §2

T9 sequence (P0C7B7 whole entry M264A): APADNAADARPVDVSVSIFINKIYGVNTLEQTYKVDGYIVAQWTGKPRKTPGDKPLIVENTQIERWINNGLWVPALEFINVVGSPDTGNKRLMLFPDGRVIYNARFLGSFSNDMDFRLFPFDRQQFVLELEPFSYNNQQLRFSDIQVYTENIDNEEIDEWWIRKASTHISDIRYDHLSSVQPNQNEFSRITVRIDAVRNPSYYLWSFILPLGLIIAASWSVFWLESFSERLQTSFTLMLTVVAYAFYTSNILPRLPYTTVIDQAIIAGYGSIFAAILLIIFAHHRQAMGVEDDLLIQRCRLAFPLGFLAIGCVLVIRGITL
T10 sequence (P0C7B7 whole entry L209A): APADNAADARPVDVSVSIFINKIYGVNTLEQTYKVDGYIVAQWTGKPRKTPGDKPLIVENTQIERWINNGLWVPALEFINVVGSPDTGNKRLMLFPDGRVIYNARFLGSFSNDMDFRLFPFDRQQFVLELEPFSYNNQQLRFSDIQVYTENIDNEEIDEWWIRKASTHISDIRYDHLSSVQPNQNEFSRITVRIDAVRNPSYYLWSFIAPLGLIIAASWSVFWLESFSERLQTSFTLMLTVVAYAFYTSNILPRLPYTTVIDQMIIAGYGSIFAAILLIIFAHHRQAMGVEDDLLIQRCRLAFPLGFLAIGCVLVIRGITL
T7 sequence (P0C7B7 whole entry I208A): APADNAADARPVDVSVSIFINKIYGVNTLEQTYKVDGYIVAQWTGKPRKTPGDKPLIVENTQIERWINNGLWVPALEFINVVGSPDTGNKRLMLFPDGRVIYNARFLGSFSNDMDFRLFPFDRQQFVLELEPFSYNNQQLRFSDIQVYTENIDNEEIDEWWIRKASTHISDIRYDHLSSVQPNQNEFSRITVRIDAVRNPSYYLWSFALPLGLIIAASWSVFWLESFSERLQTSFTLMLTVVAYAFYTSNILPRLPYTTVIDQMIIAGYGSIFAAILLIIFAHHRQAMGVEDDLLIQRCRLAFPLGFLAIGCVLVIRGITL
T13 sequence (P0C7B7 whole entry W219A): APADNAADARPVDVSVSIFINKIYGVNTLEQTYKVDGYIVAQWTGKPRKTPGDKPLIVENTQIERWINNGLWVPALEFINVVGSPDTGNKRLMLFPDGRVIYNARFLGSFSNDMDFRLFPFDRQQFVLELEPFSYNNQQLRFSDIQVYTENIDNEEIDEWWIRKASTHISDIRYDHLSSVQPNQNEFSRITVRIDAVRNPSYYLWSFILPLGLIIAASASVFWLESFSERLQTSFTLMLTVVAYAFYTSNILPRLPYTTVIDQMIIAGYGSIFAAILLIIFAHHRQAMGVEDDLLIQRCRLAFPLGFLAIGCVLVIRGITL
T11 sequence (P0C7B7 whole entry L278A): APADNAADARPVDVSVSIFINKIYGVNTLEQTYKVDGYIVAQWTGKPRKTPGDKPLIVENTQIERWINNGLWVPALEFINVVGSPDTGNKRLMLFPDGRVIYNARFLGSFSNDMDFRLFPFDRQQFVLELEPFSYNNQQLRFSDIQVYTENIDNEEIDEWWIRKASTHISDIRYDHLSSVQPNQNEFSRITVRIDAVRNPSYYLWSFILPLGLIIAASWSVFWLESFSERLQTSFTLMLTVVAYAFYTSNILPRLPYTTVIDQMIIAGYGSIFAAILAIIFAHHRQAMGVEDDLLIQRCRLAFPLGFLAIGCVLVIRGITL
T12 sequence (P0C7B7 whole entry L204A): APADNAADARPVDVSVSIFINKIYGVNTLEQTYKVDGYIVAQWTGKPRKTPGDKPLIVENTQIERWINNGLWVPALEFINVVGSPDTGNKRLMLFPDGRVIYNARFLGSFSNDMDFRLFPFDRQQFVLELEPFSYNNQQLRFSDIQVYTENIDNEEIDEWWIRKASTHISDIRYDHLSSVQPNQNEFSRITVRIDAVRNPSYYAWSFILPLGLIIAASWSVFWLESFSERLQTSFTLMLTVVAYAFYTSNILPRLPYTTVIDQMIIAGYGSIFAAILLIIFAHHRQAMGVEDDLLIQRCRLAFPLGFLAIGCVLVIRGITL
T2 sequence (P0C7B7 whole entry G268A): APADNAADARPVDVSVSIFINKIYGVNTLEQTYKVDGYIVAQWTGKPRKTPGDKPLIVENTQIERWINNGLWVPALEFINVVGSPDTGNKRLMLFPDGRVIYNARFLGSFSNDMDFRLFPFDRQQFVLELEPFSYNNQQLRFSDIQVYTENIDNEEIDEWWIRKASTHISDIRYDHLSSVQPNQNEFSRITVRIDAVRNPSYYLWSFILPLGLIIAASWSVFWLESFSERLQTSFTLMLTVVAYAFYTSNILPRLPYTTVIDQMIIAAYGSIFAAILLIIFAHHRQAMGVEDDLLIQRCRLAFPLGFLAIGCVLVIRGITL
T6 sequence (P0C7B7 whole entry G270A): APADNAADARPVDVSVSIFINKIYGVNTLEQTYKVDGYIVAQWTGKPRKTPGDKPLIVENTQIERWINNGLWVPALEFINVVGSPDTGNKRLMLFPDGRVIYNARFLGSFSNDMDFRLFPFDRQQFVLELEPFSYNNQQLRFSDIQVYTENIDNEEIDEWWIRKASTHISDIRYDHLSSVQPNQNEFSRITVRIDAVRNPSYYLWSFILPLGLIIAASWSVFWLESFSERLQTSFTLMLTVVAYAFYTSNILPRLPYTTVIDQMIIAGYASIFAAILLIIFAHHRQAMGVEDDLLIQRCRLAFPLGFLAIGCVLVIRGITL
T5 sequence (P0C7B7 whole entry S271A/F307A): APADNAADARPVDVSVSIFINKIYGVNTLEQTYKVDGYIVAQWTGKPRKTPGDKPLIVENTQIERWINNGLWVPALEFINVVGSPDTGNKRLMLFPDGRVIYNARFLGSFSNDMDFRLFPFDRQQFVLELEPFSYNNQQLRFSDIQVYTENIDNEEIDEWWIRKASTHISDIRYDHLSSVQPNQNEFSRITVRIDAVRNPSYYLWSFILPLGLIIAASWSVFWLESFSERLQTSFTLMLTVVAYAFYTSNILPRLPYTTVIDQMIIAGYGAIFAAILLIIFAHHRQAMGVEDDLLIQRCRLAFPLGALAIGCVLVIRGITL
T3 sequence (P0C7B7 whole entry W219A/F303A): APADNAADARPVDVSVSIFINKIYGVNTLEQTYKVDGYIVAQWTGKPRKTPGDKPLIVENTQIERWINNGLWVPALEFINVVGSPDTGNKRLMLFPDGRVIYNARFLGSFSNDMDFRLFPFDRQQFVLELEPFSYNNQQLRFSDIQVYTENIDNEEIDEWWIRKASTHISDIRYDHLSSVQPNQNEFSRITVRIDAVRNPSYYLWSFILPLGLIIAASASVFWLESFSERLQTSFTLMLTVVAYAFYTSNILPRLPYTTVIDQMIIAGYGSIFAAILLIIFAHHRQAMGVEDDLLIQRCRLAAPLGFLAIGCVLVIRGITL
T8 sequence (P0C7B7 whole entry S271A/F303A): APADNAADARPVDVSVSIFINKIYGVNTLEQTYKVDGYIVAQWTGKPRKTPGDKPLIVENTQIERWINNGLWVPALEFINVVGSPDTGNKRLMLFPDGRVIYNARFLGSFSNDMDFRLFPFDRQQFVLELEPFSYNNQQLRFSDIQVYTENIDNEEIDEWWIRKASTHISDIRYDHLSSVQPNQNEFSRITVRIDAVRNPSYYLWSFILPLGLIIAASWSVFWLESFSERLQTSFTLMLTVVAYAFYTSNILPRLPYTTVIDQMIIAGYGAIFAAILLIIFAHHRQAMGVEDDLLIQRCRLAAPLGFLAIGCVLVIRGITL
T4 sequence (P0C7B7 whole entry W223A): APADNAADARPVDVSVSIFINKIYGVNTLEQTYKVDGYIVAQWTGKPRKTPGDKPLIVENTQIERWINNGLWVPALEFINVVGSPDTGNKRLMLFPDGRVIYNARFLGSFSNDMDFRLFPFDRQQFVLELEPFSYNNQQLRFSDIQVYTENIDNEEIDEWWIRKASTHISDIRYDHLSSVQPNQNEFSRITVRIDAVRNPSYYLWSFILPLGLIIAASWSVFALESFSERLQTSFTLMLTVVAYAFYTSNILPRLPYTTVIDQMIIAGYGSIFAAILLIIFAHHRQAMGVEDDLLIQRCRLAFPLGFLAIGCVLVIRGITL
T1 sequence (P0C7B7 whole entry F222A/C299A): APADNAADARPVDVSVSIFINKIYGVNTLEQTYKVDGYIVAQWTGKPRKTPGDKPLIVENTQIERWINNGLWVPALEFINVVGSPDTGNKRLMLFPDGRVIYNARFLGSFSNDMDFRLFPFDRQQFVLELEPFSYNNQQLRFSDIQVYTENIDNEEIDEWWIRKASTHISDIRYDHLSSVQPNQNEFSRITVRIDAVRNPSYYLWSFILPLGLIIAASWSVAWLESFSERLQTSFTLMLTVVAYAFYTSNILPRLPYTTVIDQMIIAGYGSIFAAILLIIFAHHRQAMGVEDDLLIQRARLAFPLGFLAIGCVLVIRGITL

## NCCS [cysteamine]
ELIC F222A + C299A
  −logEC50: 4.00 ± 0.09
ELIC G268A
  EC50: 1190 ± 140 µM
  −logEC50: 2.92 ± 0.05
ELIC L295A
  EC50: 500 ± 100 µM
  −logEC50: 3.30 ± 0.09
ELIC W219A + F303A
  EC50: 550 ± 120 µM
  −logEC50: 3.26 ± 0.10
ELIC W223A
  EC50: 1230 ± 60 µM
  −logEC50: 2.91 ± 0.02
ELIC I310A
  EC50: 880 ± 90 µM
  −logEC50: 3.05 ± 0.04
ELIC C299A
  EC50: 560 ± 80 µM
  −logEC50: 3.25 ± 0.06
ELIC S271A + F307A
  EC50: 770 ± 90 µM
  −logEC50: 3.11 ± 0.05
ELIC I296A
  EC50: 270 ± 30 µM
  −logEC50: 3.57 ± 0.05
ELIC G270A
  EC50: 1020 ± 100 µM
  −logEC50: 2.99 ± 0.04
ELIC I208A
  EC50: 250 ± 50 µM
  −logEC50: 3.60 ± 0.09
ELIC S271A + F303A
  EC50: 620 ± 130 µM
  −logEC50: 3.21 ± 0.09
ELIC G311A
  EC50: 510 ± 100 µM
  −logEC50: 3.29 ± 0.09
ELIC M264A
  EC50: 1290 ± 120 µM
  −logEC50: 2.89 ± 0.04
ELIC L209A
  EC50: 290 ± 50 µM
  −logEC50: 3.54 ± 0.08
ELIC L278A
  EC50: 1070 ± 100 µM
  −logEC50: 2.97 ± 0.04
ELIC L204A
  EC50: 3550 ± 310 µM
  −logEC50: 2.45 ± 0.04
ELIC W219A
  EC50: 910 ± 50 µM
  −logEC50: 3.04 ± 0.02
